Converted amounts (≈) assume the structure as drawn.
What was measured:
HT 29 (colon carcinoma) = test: Cytotoxicity, MTT assay, HT 29 cells; type: cell-based; settings: human colon adenocarcinoma cells, 144 hours incubation, read-out: HT29 (IC50, μg/ml)
Protocol: (§1) The compounds according to the invention have been pharmacologically tested against four human tumor cell lines: HT 29 (colon carcinoma), PC 3 (prostate carcinoma), H 460M (lung carcinoma), MKN-45 (gastric carcinoma). Cells were incubated with the tested compound for 144 hours, then cytotoxicity was determined by using the MTT assay (Mosman, T. “Rapid Colorimetric Assay for Cellular Growth and Survival: Application to Proliferation and Cytotoxicity Assay”; J. Immunolog. Methods, (1983), 65, 66; Green, L. M., “Rapid Colorimetric Assay for Cell Viability; Application to the Quantitation of Cytotoxic and Growth Inhibitory Lymphokines”, J. Immunol. Methods, (1984),;70, 257-268).
(§2) The compounds according to the invention have been pharmacologically tested against four human tumour cell lines: HT 29 (colon carcinoma), PC 3 (prostate carcinoma), H 460M (lung carcinoma), MKN45 (gastric carcinoma). Cells were incubated with the tested compound for 144 hours, then cytotoxicity was determined by using the MTT assay (Mosman, T. “Rapid Colorimetric Assay for Cellular Growth and Survival: Application to Proliferation and Cytotoxicity Assay”; J. Immunolog. Methods, (1983), 65, 66; Green, L. M., “Rapid Colorimetric Assay for Cell Viability; Application to the Quantitation of Cytotoxic and Growth Inhibitory Lymphokines”, J. Immunol. Methods, (1984), 70, 257-268).

[1] = tested on: PC 3 (prostate carcinoma); test: Cytotoxicity, MTT assay, PC 3 cells; type: cell-based; settings: human prostate carcinoma cells, 144 hours incubation, read-out: PC3 (IC50, μg/ml)
Protocol: as §1, §2

H 460M (lung carcinoma) = test: Cytotoxicity, MTT assay, H 460M cells; type: cell-based; settings: human lung carcinoma cells, 144 hours incubation, read-out: H460M (IC50, μg/ml)
Protocol: as §1, §2

[2] = tested on: MKN-45 (gastric carcinoma); test: Cytotoxicity, MTT assay, MKN-45 cells; type: cell-based; settings: human gastric carcinoma cells, 144 hours incubation, read-out: MKN-45 (IC50, μg/ml)
Protocol: as §1, §2

Compound | melting point [°C] | IC50 (HT 29 (colon carcinoma)) [µg/mL] | IC50 [1] [µg/mL] | IC50 (H 460M (lung carcinoma)) [µg/mL] | IC50 [2] [µg/mL]
O=C1C=C(NC(=O)C(=O)c2cn(Cc3ccc(Cl)cc3)c3ccccc23)CO1 [Example 2, N-(5-oxo-2,5-dihydrofuran-3-yl)-2-(1-(4-chlorobenzyl)-1H-indol-3-yl)-2-oxo-acetamide] | 253 to 255 | 0.13 (≈ 0.329 µM) | 0.22 (≈ 0.557 µM) | 0.011 (≈ 0.0279 µM) | 0.048 (≈ 0.122 µM)
O=C1C=C(NC(=O)C(=O)c2cn(Cc3ccc(F)cc3)c3ccccc23)CO1 [Example 3, N-(5-oxo-2,5-dihydrofuran-3-yl)-2-(1-(4-fluorobenzyl)-1H-indol-3-yl)-2-oxo-acetamide] | 260 to 262 | 0.0004 (≈ 0.00106 µM) | 0.035 (≈ 0.0925 µM) | 0.012 (≈ 0.0317 µM) | 0.088 (≈ 0.233 µM)
O=C1C=C(NC(=O)C(=O)c2cn(Cc3ccc(Cl)cc3)c3cc(Cl)ccc23)CO1 [Example 4] | – | 0.1 (≈ 0.233 µM) | 0.3 (≈ 0.699 µM) | 0.049 (≈ 0.114 µM) | 0.12 (≈ 0.28 µM)

Further lines, with some results ahead:

melting point [°C] | Compound | IC50 (HT 29 (colon carcinoma)) [µg/mL] | IC50 [1] [µg/mL] | IC50 (H 460M (lung carcinoma)) [µg/mL] | IC50 [2] [µg/mL]
190 to 196 | NCCNC(=O)c1cccc2c1c(C(=O)C(=O)NC1=CC(=O)OC1)cn2Cc1ccc(Cl)cc1 | – | – | – | –
238 to 240 | O=C1C=C(NC(=O)C(=O)c2cn(Cc3ccc(Cl)cc3)c3cccc(CO)c23)CO1 | – | – | – | –
268 to 270 | O=C1C=C(NC(=O)C(=O)c2cn(Cc3ccc(Cl)cc3)c3ccccc23)CS1 | – | – | – | –
225 to 227 | CN(C)CCNC(=O)c1cccc2c1c(C(=O)C(=O)NC1=CC(=O)OC1)cn2Cc1ccc(Cl)cc1 | – | – | – | –

Source: patent publication US6753342B2, “2-(1h-indol-3-yl)-2-oxo-acetamides with antitumor activity” (Novuspharma S.p.A., priority 1999, dated 2004)
